Source: patent US8293781B2, “Indole derivatives having cPLA2 inhibiting activity and applications and production methods of the same” (Daiichi Sankyo Company, Limited, priority 2007, dated 2012)
Structures can show the parent of a compound that is named as a salt.

Molecular target: T1, cPLA2 crudely purified from the cytoplasm fraction of U937 (Homo sapiens, UniProt P47712)
T1 construct: cPLA2 crudely purified from the cytoplasm fraction of U937; endogenous in cells; host or cells: U937 cells (cytoplasm fraction, crude purification)
T1 sequence (P47712 1-749): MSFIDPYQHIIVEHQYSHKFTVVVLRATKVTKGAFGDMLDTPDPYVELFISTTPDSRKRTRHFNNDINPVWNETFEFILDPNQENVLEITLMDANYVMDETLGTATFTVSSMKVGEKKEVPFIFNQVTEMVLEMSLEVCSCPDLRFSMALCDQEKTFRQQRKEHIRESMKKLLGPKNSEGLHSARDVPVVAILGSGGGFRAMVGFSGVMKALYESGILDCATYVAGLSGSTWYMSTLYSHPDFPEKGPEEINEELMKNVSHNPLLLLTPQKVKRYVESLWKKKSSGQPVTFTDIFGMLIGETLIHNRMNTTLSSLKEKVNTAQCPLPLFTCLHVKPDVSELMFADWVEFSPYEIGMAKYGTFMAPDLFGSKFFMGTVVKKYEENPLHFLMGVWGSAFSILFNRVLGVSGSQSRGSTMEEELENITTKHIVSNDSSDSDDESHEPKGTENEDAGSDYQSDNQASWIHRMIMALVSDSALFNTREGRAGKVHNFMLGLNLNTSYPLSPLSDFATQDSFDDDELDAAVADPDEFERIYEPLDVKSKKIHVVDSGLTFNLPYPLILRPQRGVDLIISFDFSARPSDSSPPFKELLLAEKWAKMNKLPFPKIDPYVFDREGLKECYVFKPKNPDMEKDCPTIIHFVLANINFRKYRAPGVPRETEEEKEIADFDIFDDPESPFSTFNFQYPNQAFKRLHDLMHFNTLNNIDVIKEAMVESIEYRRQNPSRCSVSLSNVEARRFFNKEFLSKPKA
Assay: Measurement of cPLA2 inhibitory activity (release of [14C]-arachidonic acid from phosphatidyl choline liposome)
Assay type: biochemical
Conditions: cPLA2 from U937 cytoplasm fraction, [14C]arachidonyl-phosphatidyl choline liposome, 37° C., 60 minutes; read-out: cPLA2 inhibitory activity, 50% inhibiting concentration IC50
How it was run: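 The read-out is radioactivity from extracted [14C]-arachidonic acid, freed over 60 min at 37° C from liposomes of 14C-arachidonyl phosphatidylcholine (10 μM PC in the added solution). Buffer was 50 mM HEPES pH 7.5 with Ca2+, DTT, NaCl and BSA. IC50 was derived from inhibition relative to enzyme control minus no-enzyme control.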

Point of comparison: `O=C(O)CCc1ccc2c(c1)c(CCc1ccccc1)cn2-c1ccc(OCc2cccnc2)cc1` [Example 248, 3-{3-(2-phenylethyl)-1-[4-(pyridin-3-ylmethoxy)phenyl]-1H-indol-5-yl}propanoic acid], IC50 7 nM. Against it:
- COCCc1ccc(-n2cc(CCc3ccccc3)c3cc(CCC(=O)O)ccc32)cc1 [Example 201, 3-{1-[4-(2-methoxyethyl)phenyl]-3-(2-phenylethyl)-1H-indol-5-yl}propanoic acid] — 31-fold higher, 219 nM
- COCCOc1ccc(-n2cc(CCc3ccccc3)c3cc(CCC(=O)O)ccc32)cc1 [Example 203, 3-{1-[4-(2-methoxyethoxy)phenyl]-3-(2-phenylethyl)-1H-indol-5-yl}propanoic acid] — within 1.5-fold, 10 nM
- O=C(O)CCc1ccc2c(c1)c(CCc1ccccc1)cn2-c1ccc(C(F)(F)F)cn1 [Example 205, 3-{3-(2-phenylethyl)-1-[5-(trifluoromethyl)pyridin-2-yl]-1H-indol-5-yl}propanoic acid] — 19-fold higher, 133 nM
- O=C(O)CCc1ccc2c(c1)c(CCc1ccccc1)cn2-c1ccc(C(F)(F)F)cc1 [Example 207, 3-{3-(2-phenylethyl)-1-[4-(trifluoromethyl)phenyl]-1H-indol-5-yl}propanoic acid] — 9.1-fold higher, 64 nM
- O=C(O)CCc1ccc2c(c1)c(CCc1ccccc1)cn2-c1ccc(CCO)cc1 [Example 209, 3-{1-[4-(2-hydroxyethyl)phenyl]-3-(2-phenylethyl)-1H-indol-5-yl}propanoic acid] — 35-fold higher, 244 nM
- COc1ccc(-n2cc(CCc3ccccc3)c3cc(CCC(=O)O)ccc32)cc1OC [Example 211, 3-[1-(3,4-dimethoxyphenyl)-3-(2-phenylethyl)-1H-indol-5-yl]propanoic acid] — 110-fold higher, 790 nM
- O=C(O)CCc1ccc2c(c1)c(CCc1ccccc1)cn2-c1ccc(OC2CCCCO2)cc1 (stereo not drawn) [Example 213, 3-{3-(2-phenylethyl)-1-[4-(tetrahydro-2H-pyran-2-yloxy)phenyl]-1H-indol-5-yl}propanoic acid] — 2.1-fold higher, 15 nM
- O=C(O)CCc1ccc2c(c1)c(CCc1ccccc1)cn2-c1ccc(OC2CCCCO2)cc1 (stereo not drawn) [Example 214, 3-{3-(2-phenylethyl)-1-[4-(tetrahydro-2H-pyran-2-yloxy)phenyl]-1H-indol-5-yl}propanoic acid 2-amino-2-(hydroxymethyl)propane-1,3-diol salt (1:1)] — within 1.5-fold, 5 nM
- COCc1ccc(-n2cc(CCc3ccccc3)c3cc(CCC(=O)O)ccc32)cc1 [Example 216, 3-{1-[4-(methoxymethyl)phenyl]-3-(2-phenylethyl)-1H-indol-5-yl}propanoic acid] — 12-fold higher, 86 nM
- O=C(O)CCc1ccc2c(c1)c(CCc1ccccc1)cn2-c1ccc(CO)cc1 [Example 219, 3-{1-[4-(hydroxymethyl)phenyl]-3-(2-phenylethyl)-1H-indol-5-yl}propanoic acid] — 21-fold higher, 147 nM
- O=C(O)CCc1ccc2c(c1)c(CCc1ccccc1)cn2-c1ccc(CO)cc1 [Example 220, 3-{1-[4-(hydroxymethyl)phenyl]-3-(2-phenylethyl)-1H-indol-5-yl}propanoic acid 2-amino-2-(hydroxymethyl)propane-1,3-diol salt (1:1)] — 21-fold higher, 146 nM
- O=C(O)CCc1ccc2c(c1)c(CCc1ccccc1)cn2-c1ccc(OCCN2CCCC2)cc1 [Example 222, 3-{3-(2-phenylethyl)-1-[4-(2-pyrrolidin-1-ylethoxy)phenyl]-1H-indol-5-yl}propanoic acid] — 7-fold higher, 49 nM
- O=C(O)CCc1ccc2c(c1)c(CCc1ccccc1)cn2-c1ccc(OCCN2CCCC2)cc1 [Example 223, 3-{3-(2-phenylethyl)-1-[4-(2-pyrrolidin-1-ylethoxy)phenyl]-1H-indol-5-yl}propanoic acid hydrochloride] — 8.1-fold higher, 57 nM
- O=C(O)CCc1ccc2c(c1)c(CCc1ccccc1)cn2-c1ccc(OC2CCOCC2)cc1 [Example 225, 3-{3-(2-phenylethyl)-1-[4-(tetrahydro-2H-pyran-4-yloxy)phenyl]-1H-indol-5-yl}propanoic acid] — within 1.5-fold, 8 nM
- O=C(O)CCc1ccc2c(c1)c(CCc1ccccc1)cn2-c1ccc(OCCO)cc1 [Example 228, 3-{1-[4-(2-hydroxyethoxy)phenyl]-3-(2-phenylethyl)-1H-indol-5-yl}propanoic acid] — 1.8-fold lower, 4 nM
- O=C(O)CCc1ccc2c(c1)c(CCc1ccccc1)cn2-c1ccc2c(c1)OCCO2 [Example 233, 3-[1-(2,3-dihydro-1,4-benzodioxin-6-yl)-3-(2-phenylethyl)-1H-indol-5-yl]propanoic acid 2-amino-2-(hydroxymethyl)propane-1,3-diol salt (1:1)] — 12-fold higher, 82 nM
- O=C(O)CCc1ccc2c(c1)c(CCc1ccccc1)cn2-c1ccc(Cc2ccccn2)cc1 [Example 235, 3-{3-(2-phenylethyl)-1-[4-(pyridin-2-ylmethyl)phenyl]-1H-indol-5-yl}propanoic acid hydrochloride] — 17-fold higher, 122 nM
- O=C(O)CCc1ccc2c(c1)c(CCc1ccccc1)cn2-c1ccc(Cc2ccncc2)cc1 [Example 237, 3-{3-(2-phenylethyl)-1-[4-(pyridin-4-ylmethyl)phenyl]-1H-indol-5-yl}propanoic acid hydrochloride] — 28-fold higher, 193 nM
- O=C(O)/C=C/c1ccc2c(c1)c(CCc1ccccc1)cn2-c1ccc(O)cc1 [Example 239, (2E)-3-[1-(4-hydroxyphenyl)-3-(2-phenylethyl)-1H-indol-5-yl]-2-propenoic acid] — 7.7-fold higher, 54 nM
- O=C(O)CCc1ccc2c(c1)c(CCc1ccccc1)cn2-c1ccc(OCC2CCCCO2)cc1 (stereo not drawn) [Example 243, 3-{3-(2-phenylethyl)-1-[4-(tetrahydro-2H-pyran-2-ylmethoxy)phenyl]-1H-indol-5-yl}propanoic acid 2-amino-2-(hydroxymethyl)propane-1,3-diol salt (1:1)] — 1.8-fold lower, 4 nM
- O=C(O)CCc1ccc2c(c1)c(CCc1ccccc1)cn2-c1ccc(OCc2ccccn2)cc1 [Example 245, 3-{3-(2-phenylethyl)-1-[4-(pyridin-2-ylmethoxy)phenyl]-1H-indol-5-yl}propanoic acid] — within 1.5-fold, 10 nM
- O=C(O)CCc1ccc2c(c1)c(CCc1ccccc1)cn2-c1ccc(OCc2ccccn2)cc1 [Example 246, 3-{3-(2-phenylethyl)-1-[4-(pyridin-2-ylmethoxy)phenyl]-1H-indol-5-yl}propanoic acid hydrochloride] — the same, 7 nM
- O=C(O)CCc1ccc2c(c1)c(CCc1ccccc1)cn2-c1ccc(OCc2cccnc2)cc1 [Example 249, 3-{3-(2-phenylethyl)-1-[4-(pyridin-3-ylmethoxy)phenyl]-1H-indol-5-yl}propanoic acid hydrochloride] — 3.7-fold higher, 26 nM
- O=C(O)CCc1ccc2c(c1)c(CCc1ccccc1)cn2-c1ccc(OCCc2ccccn2)cc1 [Example 251, 3-{3-(2-phenylethyl)-1-[4-(2-pyridin-2-ylethoxy)phenyl]-1H-indol-5-yl}propanoic acid] — within 1.5-fold, 9 nM
- O=C(O)CCc1ccc2c(c1)c(CCc1ccccc1)cn2-c1ccc(OCCc2cccnc2)cc1 [Example 253, 3-{3-(2-phenylethyl)-1-[4-(2-pyridin-3-ylethoxy)phenyl]-1H-indol-5-yl}propanoic acid] — 2-fold higher, 14 nM
- O=C(O)CCc1ccc2c(c1)c(CCc1ccccc1)cn2-c1ccc(OCCc2ccncc2)cc1 [Example 255, 3-{3-(2-phenylethyl)-1-[4-(2-pyridin-4-ylethoxy)phenyl]-1H-indol-5-yl}propanoic acid] — 1.7-fold higher, 12 nM
